Assay results taken from ChEMBL document CHEMBL1201862, “PubChem BioAssay data set” (2004).
Calls of active or inactive are those of the source.

Experiments:
[1] = inhibitors of EBV LMP1 NF-kappaB signaling – cell-based, luciferase reporter, luminescence, dry powder, set 2, dose response (AID 624376); assay type: functional
[2] = general mammalian cell viability loss – activator set, cherry-pick, cytotoxicity control for miR-122 modulator project, dose response (AID 720690); assay type: functional, cell-based;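 note: HEK293T human cells scored for general mammalian cytotoxicity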
[3] = target: T1, Nuclear receptor subfamily 0 group B member 1 (Homo sapiens, UniProt P51843); assay type: functional, cell-based;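 note: HEK293T cells transfected with SF-1 and DAX-1 plus StAR promoter luciferase reporter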
T1 sequence (P51843 whole entry): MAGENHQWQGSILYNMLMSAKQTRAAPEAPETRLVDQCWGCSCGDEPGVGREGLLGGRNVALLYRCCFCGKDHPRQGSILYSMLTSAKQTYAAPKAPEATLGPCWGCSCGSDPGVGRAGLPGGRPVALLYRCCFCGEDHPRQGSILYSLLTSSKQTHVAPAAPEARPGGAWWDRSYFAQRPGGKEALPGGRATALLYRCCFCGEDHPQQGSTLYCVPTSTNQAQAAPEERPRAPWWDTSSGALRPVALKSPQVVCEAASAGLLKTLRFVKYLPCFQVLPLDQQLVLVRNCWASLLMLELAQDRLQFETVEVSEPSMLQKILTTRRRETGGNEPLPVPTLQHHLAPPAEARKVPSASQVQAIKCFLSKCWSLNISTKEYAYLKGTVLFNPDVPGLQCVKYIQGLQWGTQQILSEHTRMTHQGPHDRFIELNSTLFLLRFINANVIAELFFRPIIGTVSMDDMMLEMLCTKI

[4] = cells; assay type: functional, cell-based
[5] = luciferase reporter signal suppression in cells – H4 neuroglioma cells, luminescence, dose response (AID 1990); assay type: functional, cell-based
[6] = viability of uninfected HEp-2 cells – cell-based, HTS, cytotoxicity control for RSV inhibitor project, dose response (AID 2410); assay type: functional; details: human respiratory syncytial virus
[7] = cells
[8] = test system: Vero; assay: cells; assay type: functional, cell-based; details: Chlorocebus sabaeus
[9] = alpha-synuclein stem-loop luciferase translation blockers – H4 neuroglioma cells, luminescence, confirmation (AID 1988); assay type: functional, cell-based
[10] = Luminescence Cell-Based Dose Response HTS to Identify Inhibitors of 5'UTR Stem-Loop Driven Prion Protein mRNA Translation in H4 Neuroglioblastoma Cells. [Related pubchem assays: 1827 (Project Summary), 1813 (Primary HTS)]; assay type: functional
[11] = cells; assay type: functional, cell-based; details: HEK-CNG
[12] = Trypanosoma cruzi growth suppression in host cells – NIH3T3 host cells, beta-gal luminescence, confirmation (AID 2044); assay type: functional, cell-based;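 note: intracellular parasites grown in NIH/3T3 mouse fibroblasts as host cells; luminescent beta-galactosidase reporter signal from transgenic T. cruzi replicating inside host cells; inhibitors lower the luminescence signal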
[13] = target: DNA dC->dU-editing enzyme APOBEC-3A (Homo sapiens, UniProt P31941); assay: Dose Response confirmation of small molecule APOBEC3A DNA Deaminase Inhibitors via a fluorescence-based single-stranded DNA deaminase assay. [Related pubchem assays (depositor defined):AID493011, AID493024]; assay type: functional
[14] = NIH3T3 cell viability loss – ATP luminescence, mouse fibroblasts, counter-screen, dose response (AID 2010); assay type: functional, cell-based;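 note: cells exposed to compound for about 90 hours before reading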
[15] = target: Galanin receptor type 3 (Homo sapiens, UniProt O60755); assay: Fluorescence-based cell-based primary high throughput dose response assay to identify antagonists of the Galanin Receptor 3 (GalR3).; assay type: functional
[16] = target: DNA dC->dU-editing enzyme APOBEC-3G (Homo sapiens, UniProt Q9HC16); assay type: functional;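 note: Dose-response counterscreen measuring inhibition of APOBEC3G DNA deaminase activity, run while confirming APOBEC3A inhibitors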
[17] = toxicity toward HepG2 liver cells – cell-based, plate reader, cherry-pick, antagonist series, cytotoxicity control, dose response (AID 743416); assay type: functional
[18] = A549 cell cytotoxicity, dose response, cytotoxicity control, plate reader, cherry-pick, antagonist series (AID 743412); assay type: functional, cell-based
[19] = blockers of bursicon-stimulated LGR2 cAMP reporter – cell-based, HEK293, CRE-luciferase reporter, cherry pick, set 2, dose response (AID 743343); assay type: functional;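 note: transfected cells were stimulated with diluted bursicon conditioned medium after compound addition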
[20] = blockade of melanocortin 4 receptor signaling – cell-based, plate reader, cherry pick, counter-screen for LGR2 antagonist project, dose response (AID 743444); assay type: functional;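 note: transfected HEK 293 cells stimulated with alpha-MSH peptide; potency of inhibitors of the alpha-MSH evoked signal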
[21] = target: Endoplasmic reticulum aminopeptidase 1 (Homo sapiens, UniProt Q9NZ08); assay: inhibition of human ERAP1 enzyme activity – biochemical, cherry-pick, set 2, plate reader, dose response (AID 743314)
[22] = target: Nuclear receptor subfamily 5 group A member 2 (Homo sapiens, UniProt O00482); assay type: functional, cell-based;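 note: HEK293T cells transfected with LRH-1 and a StAR promoter luciferase reporter; potency for inhibitors that lower LRH-1 driven reporter light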
[23] = target: Steroidogenic factor 1 (Homo sapiens, UniProt Q13285); assay: Counterscreen for inverse agonists of the liver receptor homolog-1 (LRH-1; NR5A2): Luminescence-based cell-based high throughput dose response assay to identify inverse agonists of the Steroidogenic Factor 1 Nuclear Receptor (SF1; NR5A1).; assay type: functional
[24] = nonselective StAR promoter luciferase inhibitors – cell-based, luminescence, luciferase reporter, counter-screen for LRH-1 inverse agonist project, dose response (AID 651969); assay type: functional
[25] = target: Peroxisome proliferator-activated receptor gamma/Nuclear receptor coactivator 2 (Homo sapiens, UniProt P37231); assay: (§1) TR-FRET dose response biochemical High Throughput Screening assay for agonists of the steroid receptor coactivator 2 (SRC-2) recruitment by the peroxisome proliferator-activated receptor gamma (PPAR gamma): non-selective agonists. [Related pubchem assays: 1297, 1032 ]; assay type: functional
[26] = target: Peroxisome proliferator-activated receptor gamma/Nuclear receptor coactivator 3 (Homo sapiens, UniProt P37231); assay: as §1, with “3 (SRC-3)” for “2 (SRC-2)”, “1301 (Confirmation screen.), 1048 (Primary screen.)]” for “1297, 1032 ]”; assay type: functional
[27] = target: Peroxisome proliferator-activated receptor gamma/Nuclear receptor coactivator 1 (Homo sapiens, UniProt P37231); assay: as §1, with “1 (SRC-1)” for “2 (SRC-2)”, “assays (depositor defined):AID1300, AID1808, AID504735, AID631]” for “assays: 1297, 1032 ]”; assay type: protein assay
[28] = target: Long-chain-fatty-acid--AMP ligase FadD28 (Mycobacterium tuberculosis, UniProt P9WQ59); assay: Fluorescence polarization aasay to screen for inhibitors that compete for the binding of FadD28 to a bisubstrate Measured in Biochemical System Using Plate Reader - 2147-01_Inhibitor_Dose_CherryPick_Activity.; assay type: functional, Mycobacterium tuberculosis H37Rv
Long-chain-fatty-acid--AMP ligase FadD28, sequence (P9WQ59 whole entry): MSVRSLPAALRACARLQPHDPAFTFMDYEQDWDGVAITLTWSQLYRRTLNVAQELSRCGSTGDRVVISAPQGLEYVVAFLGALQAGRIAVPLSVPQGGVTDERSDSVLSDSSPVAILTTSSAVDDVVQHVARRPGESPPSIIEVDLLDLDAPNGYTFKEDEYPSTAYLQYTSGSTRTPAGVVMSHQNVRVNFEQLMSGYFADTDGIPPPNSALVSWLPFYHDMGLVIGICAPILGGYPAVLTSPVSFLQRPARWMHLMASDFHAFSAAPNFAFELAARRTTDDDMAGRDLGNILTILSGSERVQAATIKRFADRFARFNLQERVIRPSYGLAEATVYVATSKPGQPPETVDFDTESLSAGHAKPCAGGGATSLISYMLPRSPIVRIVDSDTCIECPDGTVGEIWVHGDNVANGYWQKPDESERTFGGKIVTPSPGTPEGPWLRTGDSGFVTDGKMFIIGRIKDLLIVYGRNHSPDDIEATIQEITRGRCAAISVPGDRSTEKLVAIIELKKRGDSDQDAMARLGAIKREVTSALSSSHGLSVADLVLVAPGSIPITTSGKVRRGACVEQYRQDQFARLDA

DNA dC->dU-editing enzyme APOBEC-3A, sequence (P31941 whole entry): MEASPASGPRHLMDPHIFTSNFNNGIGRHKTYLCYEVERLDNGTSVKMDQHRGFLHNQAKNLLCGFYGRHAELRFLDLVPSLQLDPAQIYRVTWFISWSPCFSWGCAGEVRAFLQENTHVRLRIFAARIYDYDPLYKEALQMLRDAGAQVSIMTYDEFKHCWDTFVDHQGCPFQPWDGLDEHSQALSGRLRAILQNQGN
Galanin receptor type 3, sequence (O60755 whole entry): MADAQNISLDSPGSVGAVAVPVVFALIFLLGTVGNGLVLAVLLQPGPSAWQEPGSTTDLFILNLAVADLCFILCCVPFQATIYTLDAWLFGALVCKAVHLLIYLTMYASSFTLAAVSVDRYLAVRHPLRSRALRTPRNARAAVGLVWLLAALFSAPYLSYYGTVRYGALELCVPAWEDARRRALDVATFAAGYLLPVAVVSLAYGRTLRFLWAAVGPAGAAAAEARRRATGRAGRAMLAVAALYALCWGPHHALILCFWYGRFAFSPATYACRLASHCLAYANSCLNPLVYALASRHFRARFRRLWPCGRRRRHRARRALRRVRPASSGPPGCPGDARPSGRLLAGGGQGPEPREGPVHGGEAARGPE
Steroidogenic factor 1, sequence (Q13285 whole entry): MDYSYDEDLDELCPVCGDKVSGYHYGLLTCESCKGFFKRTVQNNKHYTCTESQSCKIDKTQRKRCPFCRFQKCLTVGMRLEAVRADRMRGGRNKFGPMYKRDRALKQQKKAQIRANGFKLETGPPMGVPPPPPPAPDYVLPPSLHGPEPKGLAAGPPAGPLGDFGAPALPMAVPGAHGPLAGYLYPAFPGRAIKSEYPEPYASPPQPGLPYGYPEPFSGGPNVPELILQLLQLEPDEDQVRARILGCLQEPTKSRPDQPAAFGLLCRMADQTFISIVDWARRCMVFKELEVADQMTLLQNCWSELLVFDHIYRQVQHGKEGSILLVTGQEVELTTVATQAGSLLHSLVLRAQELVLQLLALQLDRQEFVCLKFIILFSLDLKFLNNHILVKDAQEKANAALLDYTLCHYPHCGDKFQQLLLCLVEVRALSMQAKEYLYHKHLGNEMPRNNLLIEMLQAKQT
DNA dC->dU-editing enzyme APOBEC-3G, sequence (Q9HC16 whole entry): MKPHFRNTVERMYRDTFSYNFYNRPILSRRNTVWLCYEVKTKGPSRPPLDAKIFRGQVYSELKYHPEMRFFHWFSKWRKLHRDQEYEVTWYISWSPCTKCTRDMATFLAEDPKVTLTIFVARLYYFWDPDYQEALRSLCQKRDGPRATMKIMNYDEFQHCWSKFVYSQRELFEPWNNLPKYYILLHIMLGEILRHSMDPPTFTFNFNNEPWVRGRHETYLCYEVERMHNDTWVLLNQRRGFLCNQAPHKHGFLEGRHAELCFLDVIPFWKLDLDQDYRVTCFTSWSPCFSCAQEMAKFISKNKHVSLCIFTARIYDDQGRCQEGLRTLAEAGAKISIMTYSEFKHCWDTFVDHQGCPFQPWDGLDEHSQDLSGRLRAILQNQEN
Nuclear receptor subfamily 5 group A member 2, sequence (O00482 whole entry): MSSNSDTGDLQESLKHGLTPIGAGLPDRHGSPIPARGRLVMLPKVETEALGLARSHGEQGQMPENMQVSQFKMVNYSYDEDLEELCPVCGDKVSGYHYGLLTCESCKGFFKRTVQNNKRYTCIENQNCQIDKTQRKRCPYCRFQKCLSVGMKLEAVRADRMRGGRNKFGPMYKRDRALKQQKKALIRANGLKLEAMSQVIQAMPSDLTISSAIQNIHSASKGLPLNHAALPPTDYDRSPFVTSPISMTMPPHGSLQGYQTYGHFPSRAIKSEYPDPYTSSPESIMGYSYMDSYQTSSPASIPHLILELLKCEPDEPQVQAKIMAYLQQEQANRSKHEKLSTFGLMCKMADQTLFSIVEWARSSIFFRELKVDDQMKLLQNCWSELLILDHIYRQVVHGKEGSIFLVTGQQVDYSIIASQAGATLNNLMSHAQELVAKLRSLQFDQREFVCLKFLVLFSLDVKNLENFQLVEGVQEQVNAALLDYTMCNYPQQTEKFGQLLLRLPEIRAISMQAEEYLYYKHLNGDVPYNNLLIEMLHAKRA
Endoplasmic reticulum aminopeptidase 1, sequence (Q9NZ08 whole entry): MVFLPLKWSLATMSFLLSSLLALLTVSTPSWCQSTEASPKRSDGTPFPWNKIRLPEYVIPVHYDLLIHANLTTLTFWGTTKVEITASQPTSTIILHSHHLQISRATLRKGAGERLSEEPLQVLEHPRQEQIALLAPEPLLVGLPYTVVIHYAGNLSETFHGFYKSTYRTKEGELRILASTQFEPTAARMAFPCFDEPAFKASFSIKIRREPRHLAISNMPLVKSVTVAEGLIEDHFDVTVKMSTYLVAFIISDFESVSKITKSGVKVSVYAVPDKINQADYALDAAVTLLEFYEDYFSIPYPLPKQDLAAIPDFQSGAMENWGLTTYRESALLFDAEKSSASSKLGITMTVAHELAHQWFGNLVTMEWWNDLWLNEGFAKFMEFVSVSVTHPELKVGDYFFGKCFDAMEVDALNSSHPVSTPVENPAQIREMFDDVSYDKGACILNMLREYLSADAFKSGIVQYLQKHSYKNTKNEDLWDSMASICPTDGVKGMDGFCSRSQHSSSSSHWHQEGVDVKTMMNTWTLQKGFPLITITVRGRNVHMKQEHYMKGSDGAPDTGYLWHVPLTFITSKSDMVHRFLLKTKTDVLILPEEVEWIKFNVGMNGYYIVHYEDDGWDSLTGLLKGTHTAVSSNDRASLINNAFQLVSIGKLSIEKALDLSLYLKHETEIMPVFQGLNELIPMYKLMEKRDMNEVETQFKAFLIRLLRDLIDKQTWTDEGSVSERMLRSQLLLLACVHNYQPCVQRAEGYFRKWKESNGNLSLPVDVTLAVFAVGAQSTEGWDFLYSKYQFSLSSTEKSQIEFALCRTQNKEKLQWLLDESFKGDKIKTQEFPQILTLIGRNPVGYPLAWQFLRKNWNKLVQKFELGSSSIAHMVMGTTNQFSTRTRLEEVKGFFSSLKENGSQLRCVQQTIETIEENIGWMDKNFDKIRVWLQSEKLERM

COc1ccc(NC(=O)N(C)C[C@@H]2Oc3cc(C#CCC(C)C)ccc3S(=O)(=O)N([C@@H](C)CO)C[C@@H]2C)cc1
AbsAC35 [1]: 43.42 µM | AC50 [2]: 26.8 µM (active)

Cc1cc(C(=O)NCCc2ccc(Cl)cc2)c(C)o1
IC50 [3]: > 67.5 µM (inactive) | IC50 [4]: > 67.5 µM (inactive)

Nc1cnn(C2OC(CO)C(O)C2O)c(=O)n1 (configuration not stated)
EC50 [5]: 14.3 µM (active) | CC50 [6]: 5.98 µM (active) | IC50 [7]: 1.91 µM (active) | IC50 [3]: > 22.5 µM (inactive) | IC50 [8]: 11.8 µM (active) | EC50 [9]: 14.7 µM (active) | EC50 [10]: > 120 µM (not active) | IC50 [4]: > 67.5 µM (inactive)

CC1(C)CC(N2CCCCC2)=CC(=[N+]2CCCCC2)C1
EC50 [11]: > 29.9 µM (inactive) | EC50 [12]: 0.369 µM (active) | IC50 [13]: 2.2 µM (active) | EC50 [14]: 21.5 µM (active) | IC50 [15]: 3.67 µM (active) | IC50 [16]: 4.57 µM (active)

COc1ccc2oc(-c3ccccc3)cc(=O)c2c1 [6-METHOXYFLAVONE]
AC50 [17]: > 52 µM (inactive) | AC50 [18]: > 52 µM (inactive) | AC50 [19]: 5.46 µM (active) | AC50 [20]: 6.5 µM (active)

O=C(NCc1ccccn1)[C@@H]1[C@@H](CO)[C@@H]2Cn3c(ccc(/C=C/c4ccccc4)c3=O)[C@H]1N2CC1CC1
AC50 [21]: 7.58 µM (active)

CCCNC(=O)c1sc2c(c1C(=O)Nc1ccccn1)CCCC2
IC50 [22]: 14.5 µM (inactive) | IC50 [23]: 8.39 µM (active) | IC50 [24]: 35.9 µM (inactive)

Cc1ccccc1C(=O)Nc1nnc(-c2ccco2)s1
EC50 [25]: > 26.5 µM (not active) | EC50 [26]: > 79.4 µM (not active) | EC50 [27]: > 79.4 µM (inactive) | AC50 [19]: 4.84 µM (active) | AC50 [20]: 8.18 µM (active)

O=C(NCCSCc1ccc(Cl)cc1Cl)c1ccc(CN2CCOCC2)cc1
AC50 [28]: 15.7 µM (active)
